The term mass density denotes the mass of a sample divided by its volume.

± gives the expanded uncertainty stated by the source.

The conditions of this series: 101.33 kPa, Liquid, Buoyancy - hydrostatic balance with magnetic suspension - one sinker.

For the molecule `CCO` [ethanol], the mass density reads like this: (313.2 K) 768.9 ± 3.5 kg/m3; (338.2 K) 752.7 ± 1.7 kg/m3; (343.2 K) 732.4 ± 1.2 kg/m3.

The record behind these values is the NIST ThermoML archive (doi:10.1021/je900830s).
